The values that follow come from patent US10053468B2, “Heterocyclic compound” (TAKEDA PHARMACEUTICAL COMPANY LIMITED, priority 2013, dated 2018).

Assay [1] concerns the target T1, RORγt (Homo sapiens, UniProt P51449).
T1 sequence (P51449 1-497 isoform P51449-2): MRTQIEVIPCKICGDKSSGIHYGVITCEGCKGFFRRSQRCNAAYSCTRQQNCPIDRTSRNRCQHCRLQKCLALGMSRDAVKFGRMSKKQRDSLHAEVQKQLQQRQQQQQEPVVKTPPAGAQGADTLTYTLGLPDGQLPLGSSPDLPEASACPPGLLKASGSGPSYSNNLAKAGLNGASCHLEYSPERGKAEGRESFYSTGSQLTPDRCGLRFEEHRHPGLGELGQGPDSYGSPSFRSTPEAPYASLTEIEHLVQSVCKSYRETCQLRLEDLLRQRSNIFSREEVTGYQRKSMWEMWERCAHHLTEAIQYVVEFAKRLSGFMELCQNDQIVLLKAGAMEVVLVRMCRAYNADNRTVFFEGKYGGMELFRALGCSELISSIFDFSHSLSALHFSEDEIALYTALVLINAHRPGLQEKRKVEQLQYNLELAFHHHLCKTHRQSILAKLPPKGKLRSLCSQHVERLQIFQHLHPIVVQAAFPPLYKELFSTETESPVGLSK
Nature of the assay: RORγt binding test using fluorescent-labeled cholesterol (TR-FRET). The settings on record: read-out: Binding inhibitory rate of fluorescent-labeled cholesterol to RORγt at test compound 1 μM (%). In outline: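 TR-FRET displacement with His-tagged RORγt, BODIPY-cholesterol and Tb-anti-His antibody in Tris-HCl pH 7.5, 100 mM NaCl, 1 mM DTT, 0.1% BSA. Compound, RORγt and labelled cholesterol were incubated 20 min at RT, then antibody was added for another 20 min.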
(In general: In TR-FRET formats the signal depends on donor and acceptor labels being close together.)

Assay [2] addresses T1, RORγt. Nature of the assay: RORγt binding test using fluorescent-labeled synthetic ligand (TR-FRET). Particulars: read-out: Binding inhibitory rate of fluorescent-labeled synthetic ligand to RORγt at test compound 1 μM (%). The method in brief: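 His-tagged RORγt (diluted to 240 nM) with compound, then fluorescent synthetic ligand (diluted to 12 μM), 20 min at room temperature, followed by Tb anti-His antibody (diluted to 8 nM), 20 min.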

The target in assay [3] is T1, RORγt. Nature of the assay: Cofactor recruitment test (Alpha Screen, biotinylated SRC-1 peptide). The format is biochemical. The settings on record: read-out: Signal value inhibitory rate at test compound 1 μM (%). As for the experimental part:
Cofactor Recruitment Test
Cofactor recruitment test was performed by Alpha Screen (Histidine Detection Kit, PerkinElmer) method. First, a test compound was diluted with an assay buffer (50 mM Tris-HCl (pH 7.5), 50 mM KCl, 1 mM DTT, 0.1% BSA) and added to a 384 well plate by 5 μL. […] The mixture was stood in a dark place for 1 hr, and the signal value was measured by Envision (PerkinElmer).

Assay [4] has as its target T1, RORγt. Nature of the assay: Jurkat reporter test (human IL-17 ROR response element luciferase, RORγt vector). The format is cell-based. The settings on record: Jurkat, read-out: Luminescence level inhibitory rate at test compound 3 μM (%). In outline:
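Jurkat cells were electroporated (1350 V, 10 ms, 3 pulses) with reporter constructs, then cultured overnight with compound in RPMI containing 10% lipid-reduced FCS, 10 mM HEPES pH 7.5 and 5 μM lovastatin. Luciferase was quantified by Bright-Glo luminescence after 10 min at room temperature.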

The subject of assay [5] is IL-17 production in human blood. The assay is described as follows: Effect on IL-17 production in human blood. The format is cell-based. Particulars: 72 h, 10 μM test compound, IL-23 and Dynabeads stimulation, 3 days, read-out: Percent Inhibition at 10 μM (IL-17 production). The method, then:
Effect on IL-17 Production in Human Blood
The inhibitory effect of the test compound on IL-17 production in human blood was evaluated as follows. First, 150 μL of peripheral blood collected from healthy individuals using heparinized vacuum blood collection tubes was dispensed into each well of a 96-well plate (Corning), and 45 μL of RPMI 1640 medium (Gibco) containing 10% fetal bovine serum (FBS, Hyclone) and 30 μL of the test compound diluted with the medium was added to each well. The plate was then cultured for 30 min at 37° C. Cells were subsequently stimulated by adding 30 μL of 100 ng/mL human IL-23 (R&D) and 45 μL of Dynabeads Human (Invitrogen) to each well and culturing the plate for 3 days at 37° C. In wells without stimulation, 75 μL of RPMI 1640 medium containing 10% FBS was added instead of the IL-23 and Dynabeads solution. After culturing for 3 days, the culture supernatant was collected, and the amount of IL-17 in the supernatant was measured using an IL-17 ELISA kit (R&D).
The results of the above-described measurements (percent inhibition of IL-17 production with 10 μM of the test compound) are shown in Table 4.

For assay [6], the system named is IL-17A gene expression. Nature of the assay: Effect on IL-23-induced cytokine expression in mice. It is filed as in vivo, Balb/c mice. Particulars: Mus musculus, 30 min before and 8 hr after IL-23, versus the negative control group, read-out: Percent inhibition of IL-17A gene expression; for inhibition in vivo at 30 mg/kg: dose 30 mg/kg oral; for inhibition in vivo at 10 mg/kg: dose 10 mg/kg oral. The method, then:
Effect on IL-23-induced Cytokine Expression in Mice
A mouse IL-23 solution (500 ng/10 μL, prepared by Takeda Pharmaceutical Company Limited) or PBS (10 μL, negative control group) was administered intradermally in the ear of Balb/c mice (Charles River Japan, male, 7 weeks old). Twenty-four hr after administration, the ear was resected under isoflurane anesthesia. The test compound was suspended in 0.5% methylcellulose and administered orally 30 min before and 8 hr after IL-23 administration.
RNA extraction from the ear tissue and quantitative PCR were performed as follows. Specifically, ear tissue 5 mm in diameter was punched from an area of the resected ear centering on the IL-23 injection site, and the tissue was immersed in RNAlater (QIAGEN) for at least 18 hr. The RNAlater-treated ear tissue was homogenized in 350 μL of RLT buffer (RNeasy mini kit, QIAGEN) and treated (55° C., 10 min) with Proteinase K (QIAGEN). Total RNA was then extracted according to the RNeasy mini kit protocol. The RNA thus obtained was then reverse transcribed into cDNA using the High-Capacity RNA-to-cDNA kit (Applied Biosystems), and the amount of each cytokine expressions was measured by real-time PCR (Viia7™, Applied Biosystems). The PCR buffer used was TaqMan Fast Advanced Master Mix (Applied Biosystems), and TaqMan Gene Expression Assays (Applied Biosystems) Mm00439618 ml (IL-17A) and 4352341E (β-actin) were used for cytokine gene detection. The IL-17A gene expression level was normalized to the R-actin gene expression level, and the percent inhibition of IL-17A gene expression with the test compound was then calculated.
The results obtained with the above-described method (percent inhibition of IL-17A gene expression with oral administration of the test compound) are shown in Table 5.

The test system of assay [7] is mouse model of IL-23-induced psoriasis. Nature of the assay: Effect in a mouse model of IL-23-induced psoriasis. The format is in vivo, Balb/c mice. The settings on record: dose 30 mg/kg oral twice daily; versus the negative control group. As for the experimental part:
Effect in a Mouse Model of IL-23-induced Psoriasis
Mouse IL-23 (500 ng/15 μL, R&D) or PBS (15 μL, negative control group) was administered intradermally in the ear of Balb/c mice (Charles River Japan, male, 7 weeks old) 5 times every other days. Seven hr after IL-23 administration at 8 days after the initial administration (final administration), the mice were anesthetized with isoflurane, and ear thickness was measured with calipers. After the ear thickness was measured, the ear was resected, tissue 8 mm in diameter was punched from an area centering on the IL-23 injection site, and the tissue was weighed. The punched ear tissue was cut in half, and one half was immersion-fixed in 10% neutral buffer formalin solution for use in histopathological evaluation. The other half was immersed in RNAlater (QIAGEN) for at least 18 hr for use in an evaluation of the IL-17A mRNA expression level. The test compound was suspended in 0.5% methylcellulose and administered orally twice daily on consecutive days from 30 min before the initial IL-23 administration to 30 min before the final IL-23 administration.
The change in ear thickness in this model was evaluated by calculating the difference in measured thickness between before IL-23 administration and 7 hr after the final IL-23 administration. In addition, the formalin-fixed tissue was embedded and sectioned, then stained with hematoxylin-eosin. The degree of acanthosis was then evaluated qualitatively by microscopy (classified with a score of 0 to 4). RNA extraction from the ear tissue and quantitative PCR were performed as follows. […] The RNA thus obtained was reverse transcribed into cDNA using the High-Capacity RNA-to-cDNA kit (Applied Biosystems), and the expression of each gene was measured by real-time PCR (Viia7™, Applied Biosystems). […] The IL-17A gene expression level was normalized to the R-actin gene expression level, and the percent inhibition of IL-17A gene expression with the test compound was then calculated. […]

Turning to `COc1ccc2c(n1)CCN(C(=O)CCCC(=O)O)[C@H]2C(=O)Nc1ccc([Si](C)(C)C)c(F)c1` [Example 140, 5-((5R)-5-((3-fluoro-4-(trimethylsilyl)phenyl)carbamoyl)-2-methoxy-7,8-dihydro-1,6-naphthyridin-6(5H)-yl)-5-oxopentanoic acid], the inhibition at 1 µM was found to be 100% in assay [1], 101% in assay [2] and 95% in assay [3]. The inhibition at 3 µM in assay [4] stood at 102%. In addition, the inhibition at 10 µM in assay [5] is 91%. Also, in assay [6], the inhibition in vivo at 30 mg/kg turned out to be 90%.
With `COc1ccc2c(n1)CCN(C(=O)CCCC(=O)O)[C@H]2C(=O)Nc1cc(F)c2c(c1)CCC2(C)C` [Example 118, 5-((5R)-5-((7-fluoro-1,1-dimethyl-2,3-dihydro-1H-inden-5-yl)carbamoyl)-2-methoxy-7,8-dihydro-1,6-naphthyridin-6(5H)-yl)-5-oxopentanoic acid], the inhibition at 10 µM in assay [5] came out at 88%. Moreover, the inhibition in vivo at 10 mg/kg in assay [6] is 87%. In assay [7], the “Percent Inhibition of Acanthosis Score” value was 80%, the “Percent Inhibition of Ear Thickness” value came to 61% and the “Percent Inhibition of IL-17A Expression” value stood at 111%.
For `CCOc1ccc2c(c1)CCN(C(=O)CCCC(=O)O)[C@H]2C(=O)Nc1cc(F)c([Si](C)(C)C)c(F)c1` [Example 179, 5-((1R)-1-((3,5-difluoro-4-(trimethylsilyl)phenyl)carbamoyl)-6-ethoxy-3,4-dihydroisoquinolin-2(1H)-yl)-5-oxopentanoic acid], the inhibition at 1 µM in assay [2] is 101%; in assay [3], 94%. Also, in assay [4], the inhibition at 3 µM turned out to be 102%. The inhibition at 10 µM in assay [5] was found to be 82%. Besides, in assay [6], the inhibition in vivo at 30 mg/kg was found to be 95%.
In the case of `COc1ccc2c(c1)CCN(C(=O)N1CC(CC(=O)O)C1)[C@H]2C(=O)Nc1cc(F)c([Si](C)(C)C)c(F)c1` [Example 260, (1-(((1R)-1-((3,5-difluoro-4-(trimethylsilyl)phenyl)carbamoyl)-6-methoxy-3,4-dihydroisoquinolin-2(1H)-yl)carbonyl)azetidin-3-yl)acetic acid], the inhibition at 1 µM in assay [2] was 102%; in assay [3], 95%. Also, in assay [4], the inhibition at 3 µM was determined as 101%. The inhibition at 10 µM in assay [5] stood at 89%. For the same compound, in assay [6], the inhibition in vivo at 10 mg/kg was 76%.
